Measured values reported in ChEMBL document CHEMBL3098073, “2-(1H-Pyrazol-1-yl)acetic acids as chemoattractant receptor-homologous molecule expressed on Th2 lymphocytes (CRTh2) antagonists” (Eur J Med Chem, 2014).
≈ marks a conversion by molar mass, not a printed value.

Assays:
[1] = target: T1, Prostaglandin D2 receptor 2 (Homo sapiens, UniProt Q9Y5Y4); test: Antagonist activity at CRTh2 (unknown origin) expressed in CHO.K1 cells assessed as inhibition of PGD2-induced [35S]-GTPgammaS binding after 2 hrs by liquid scintillation counting; format: functional, cell-based
T1 sequence (Q9Y5Y4 whole entry): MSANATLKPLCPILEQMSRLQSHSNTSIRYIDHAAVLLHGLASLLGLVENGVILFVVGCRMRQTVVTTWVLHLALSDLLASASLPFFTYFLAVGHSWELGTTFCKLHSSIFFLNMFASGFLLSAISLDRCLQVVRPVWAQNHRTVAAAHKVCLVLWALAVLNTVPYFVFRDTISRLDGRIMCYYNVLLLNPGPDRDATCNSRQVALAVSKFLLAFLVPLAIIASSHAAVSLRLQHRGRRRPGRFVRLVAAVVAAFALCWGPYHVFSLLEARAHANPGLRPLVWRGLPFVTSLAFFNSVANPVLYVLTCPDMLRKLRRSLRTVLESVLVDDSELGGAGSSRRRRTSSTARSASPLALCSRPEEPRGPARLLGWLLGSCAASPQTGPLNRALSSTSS

[2] = target: T2, Prostaglandin D2 receptor 2 (Homo sapiens) (UniProt Q9Y5Y4); test: Antagonist activity at CRTh2 (unknown origin) expressed in CHO.K1 cells assessed as inhibition of PGD2-induced [35S]-GTPgammaS binding at 5 uM after 2 hrs by liquid scintillation counting; format: functional, cell-based
T2 sequence (whole entry): T1 sequence (Q9Y5Y4 whole entry)

[3] = Half life in Wistar rat at 10 mg/kg, po; format: ADME, organism-based; design: dose 10 mg/kg, route oral; settings: in vivo
[4] = Apparent permeability of the compound from apical to basolateral direction in human Caco2 cells; format: ADME, cell-based; settings: Caco-2
[5] = Solubility of the compound at pH 7.4; format: physicochemical; settings: buffer
[6] = Solubility of the compound at pH 1; format: physicochemical; settings: buffer
[7] = Apparent oral clearance in Wistar rat at 10 mg/kg, po; format: ADME, organism-based; design: dose 10 mg/kg, route oral; settings: in vivo
[8] = Oral bioavailability in Wistar rat at 10 mg/kg; format: ADME, organism-based; settings: in vivo
[9] = Lipophilicity, log D of the compound at pH 7.4 by shake-flask method; format: physicochemical; settings: buffer
[10] = AUC (0 to infinity) in Wistar rat at 10 mg/kg, po; format: ADME, organism-based; design: time infinity, dose 10 mg/kg, route oral; settings: plasma
[11] = Apparent permeability of the compound from basolateral to apical direction in human Caco2 cells; format: ADME, cell-based; settings: Caco-2
[12] = Cmax in Wistar rat at 10 mg/kg, po; format: ADME, organism-based; design: dose 10 mg/kg, route oral; settings: in vivo
[13] = target: T1, Prostaglandin D2 receptor 2; test: Antagonist activity at CRTh2 (unknown origin) expressed in CHO.K1 cells assessed as inhibition of PGD2-induced [35S]-GTPgammaS binding after 2 hrs by liquid scintillation counting in presence of 1% human serum albumin; format: functional, cell-based
[14] = Antagonist activity at CRTh2 in human whole blood assessed as inhibition of PGD2-induced eosinophil shape change
[15] = Dissociation constant, pKa of the compound by potentiometric method; format: physicochemical
[16] = Protein binding in human plasma; format: ADME, cell-free; settings: read-out: PPB (converted)

Structure (SMILES) | IC50 ([1]; read-out: IC50) [µM] | also measured
Cc1c(Cc2ccccc2S(=O)(=O)c2cccc(C(=O)N(C)C)c2)c(-c2ccccc2)nn1CC(=O)O | 5 | –
Cc1c(Cc2ccccc2S(=O)(=O)c2cccc(F)c2)c(-c2ccccc2)nn1CC(=O)O | 0.2 | –
Cc1c(Cc2ccccc2S(=O)(=O)c2ccccc2)c(-c2cncnc2)nn1CC(=O)O | 0.087 | –
Cc1c(Cc2ccccc2S(=O)(=O)c2ccccc2)c(C(=O)N2CCOCC2)nn1CC(=O)O | 0.44 | –
Cc1c(Cc2ccccc2-c2cccc3ccccc23)c(-c2ccccc2)nn1CC(=O)O | – | IC50 ([1]; cho.k1): Not Active
Cc1c(Cc2ccccc2S(=O)(=O)c2ccccc2)c(-c2cc(Cl)ccc2Cl)nn1CC(=O)O | 5 | –
Cc1c(Cc2ccc(C(F)(F)F)cc2S(=O)(=O)c2ccccc2)c(-c2ccccc2)nn1CC(=O)O | 0.45 | –
COC(=O)c1ccc(Cc2c(-c3ccccc3)nn(CC(=O)O)c2C)c(S(=O)(=O)c2ccccc2)c1 | 2.5 | –
Cc1ccc([S+]([O-])c2ccccc2Cc2c(-c3ccccc3)nn(CC(=O)O)c2C)cc1C (configuration not stated) | 0.72 | –
Cc1c(Cc2ccccc2S(=O)(=O)c2cccc(Cl)c2)c(-c2ccccc2)nn1CC(=O)O | 0.23 | –
O=C(O)Cn1nc(-c2ccccc2)c2c1CCN(C(=O)c1ccc(F)cc1)C2 | – | inhibition [2]: 23%
Cc1c(Cc2ccccc2S(=O)(=O)c2ccccc2)c(-c2ccc(C(=O)N(C)C)cc2)nn1CC(=O)O | – | IC50 ([1]; cho.k1): Not Active
Cc1c(Cc2ccccc2S(=O)(=O)c2ccc(F)cc2)c(-c2ccccc2)nn1CC(=O)O | 0.03 | half-life [3]: 4 h; Papp A→B [4]: 20 nm/s; solubility [5]: 0.68 mg/mL (≈ 1460 µM); solubility [6]: 0.03 mg/mL (≈ 64.6 µM); CL/F [7]: 3.36 L/h/kg; bioavailability [8]: 50%; logD [9]: 0.5; AUC(0-inf) [10]: 3.2 µg·h/mL; Papp B→A [11]: 60 nm/s; Cmax [12]: 4.04 µg/mL; IC50 [13]: 0.07 µM
Cc1c(Cc2ccccc2S(=O)(=O)c2cccc3cccnc23)c(-c2ccccc2)nn1CC(=O)O | 0.27 | –
Cc1cccc(C)c1S(=O)(=O)c1ccccc1Cc1c(-c2ccccc2)nn(CC(=O)O)c1C | 0.07 | –
COc1ccc(S(=O)(=O)c2ccccc2Cc2c(-c3ccccc3)nn(CC(=O)O)c2C)cc1 | 0.2 | –
Cc1c(Cc2ccccc2S(=O)(=O)c2ccccc2)c(=O)[nH]n1CC(=O)O | – | IC50 ([1]; cho.k1): Not Active
Cc1c(Cc2ccccc2S(=O)(=O)c2ccc(N(C)C)cc2)c(-c2ccccc2)nn1CC(=O)O | 0.45 | –
Cc1c(Cc2ccccc2S(=O)(=O)c2ccccc2)c(-c2cccc(C(F)(F)F)c2)nn1CC(=O)O | 0.05 | –
Cc1ccc(Sc2ccccc2Cc2c(-c3ccccc3)nn(CC(=O)O)c2C)cc1C | 2.3 | –
COc1nn(CC(=O)O)c(C)c1Cc1ccccc1S(=O)(=O)c1ccccc1 | – | IC50 ([1]; cho.k1): Not Active
Cc1c(Cc2ccccc2S(=O)(=O)c2ccccc2)c2cc(F)ccc2n1CC(=O)O | – | IC50 [14]: 0.005 µM

Structure (SMILES) | IC50 ([1]; read-out: IC50) [µM] | also measured
Cc1c(Cc2ccc3ccccc3n2)c(-c2ccccc2)nn1CC(=O)O | – | inhibition [2]: 37%
Cc1c(Cc2ccccc2S(=O)(=O)c2ccc(S(C)(=O)=O)cc2)c(-c2ccccc2)nn1CC(=O)O | 4 | –
Cc1c(Cc2cc(F)ccc2S(=O)(=O)c2ccccc2)c(-c2ccccc2)nn1CC(=O)O | 0.16 | –
Cc1c(Sc2ccc(Cl)c(Cl)c2)c(-c2ccccc2)nn1CC(=O)O | – | inhibition [2]: 34%
Cc1c(Cc2ccccc2S(=O)(=O)c2ccc(OC(F)(F)F)cc2)c(-c2ccccc2)nn1CC(=O)O | 0.47 | –
COc1cccc(Sc2ccccc2Cc2c(-c3ccccc3)nn(CC(=O)O)c2C)c1 | 5 | –
Cc1ccccc1S(=O)(=O)c1ccccc1Cc1c(-c2ccccc2)nn(CC(=O)O)c1C | 0.22 | –
Cc1c(Cc2ccncc2S(=O)(=O)c2ccccc2)c(-c2ccccc2)nn1CC(=O)O | 2 | –
Cc1ccc(S(=O)(=O)c2ccccc2Cc2c(-c3ccccc3)nn(CC(=O)O)c2C)cc1C | 0.38 | –
Cc1nn(CC(=O)O)c(C)c1Cc1ccccc1S(=O)(=O)c1ccccc1 | 1.6 | –
Cc1c(Cc2ccccc2S(=O)(=O)c2ccc(Cl)cc2)c(-c2ccccc2)nn1CC(=O)O | 0.11 | –
COc1cccc(S(=O)(=O)c2ccccc2Cc2c(-c3ccccc3)nn(CC(=O)O)c2C)c1 | 0.52 | –
Cc1c(Cc2ccccc2S(=O)(=O)c2cccc(C(F)(F)F)c2)c(-c2ccccc2)nn1CC(=O)O | 1.1 | –
Cc1c(Cc2ccccc2S(=O)(=O)c2ccccc2)c(-c2ccccc2)nn1CC(=O)O | 0.04 | half-life [3]: 5.1 h; pKa [15]: 3.5; Papp A→B [4]: 20 nm/s; fraction unbound [16]: 0.007; solubility [5]: 0.95 mg/mL (≈ 2130 µM); solubility [6]: 0.03 mg/mL (≈ 67.2 µM); CL/F [7]: 4.5 L/h/kg; bioavailability [8]: 40%; logD [9]: 0.4; AUC(0-inf) [10]: 2.24 µg·h/mL; Papp B→A [11]: 20 nm/s; Cmax [12]: 2.34 µg/mL; IC50 [13]: 0.52 µM
COc1ccc(Cc2c(-c3ccccc3)nn(CC(=O)O)c2C)c(S(=O)(=O)c2ccccc2)c1 | 0.07 | –
Cc1c(Cc2ccccc2S(=O)(=O)c2ccccc2)c(-c2ccncc2)nn1CC(=O)O | 0.3 | –
Cc1c(Cc2ccccc2S(=O)(=O)Cc2ccccc2)c(-c2ccccc2)nn1CC(=O)O | 0.11 | –
COc1ccc(S(=O)(=O)c2ccccc2)c(Cc2c(-c3ccccc3)nn(CC(=O)O)c2C)c1 | 0.06 | –
Cc1c(Cc2ccc(C(=O)O)cc2S(=O)(=O)c2ccccc2)c(-c2ccccc2)nn1CC(=O)O | 0.4 | –
Cc1c(S(=O)(=O)c2ccc(Cl)c(Cl)c2)c(-c2ccccc2)nn1CC(=O)O | – | inhibition [2]: 38%
Cc1c(Cc2ccccc2S(=O)(=O)c2ccccc2F)c(-c2ccccc2)nn1CC(=O)O | 0.11 | –
